Reference: patent publication US12138256B2, “Treatment of cardiopulmonary disorders” (Bayer Aktiengesellschaft, priority 2021, dated 2024)
“And” between values parts separate entries of the source, which are not always exact repeats. Equal values may be shown once. Read-outs that look alike come from different tables or passages of the source.

Tests used:
[1] = Protein binding via Transil assay, dog plasma; format: in vitro ADME; conditions: Dog Beagle plasma, Transil assay
Description: (§1) The distribution of a test substance between Transil® (phosphatidylcholine lipid bilayers immobilized on silica beads) and plasma is a characteristic feature of any pharmaceutical compound and is dependent on its extent of binding to plasma proteins. By comparing the distribution between Transil® and buffer with the distribution between Transil® and plasma of any species of interest, the unbound fraction in the plasma of the respective animal species can be calculated in vitro. The respective plasma and buffer concentrations were determined via a radioactivity analysis. A detailed description of the method and its validation was published by Schuhmacher et al. (2).

rabbit saphenous artery = experiment: Vasorelaxant effect in vitro: phenylephrine-induced contraction of rabbit saphenous artery rings (C-1.1); conditions: Oryctolagus cuniculus, read-out: IC50, inhibition of phenylephrine induced contractions of rabbit saphenous artery rings
Method: Rabbits were anaesthetized and sacrificed by intravenous injection of thiopental sodium (about 50 mg/kg) and exsanguinated. The saphenous artery was removed and divided into rings 3 mm wide. The rings were mounted singly on in each case a pair of triangular hooks open at the end and made of 0.3 mm-thick special wire (Remanium®). Each ring was placed under an initial tension in 5 ml organ baths with Krebs-Henseleit solution which was at 37° C., was gassed with carbogen and had the following composition: NaCl 119 mM; KCl 4.8 mM; CaCl2)×2 H2O 1 mM; MgSO4×7 H2O 1.4 mM; KH2PO41.2 mM; NaHCO325 mM; glucose 10 mM; bovine serum albumin 0.001%. The force of contraction was detected with Statham UC2 cells, amplified and digitized via A/D converters (DAS-1802 HC, Keithley Instruments, Munich) and recorded in parallel on chart recorders. Contractions were induced by addition of phenylephrine.
The concentration necessary to reduce the contraction reached in the preceding control by 50% was calculated from this (IC50). The standard application volume was 5 μl. The proportion of DMSO in the bath solution corresponded to 0.1%.

[2] = Protein binding via Transil assay, monkey plasma; format: in vitro ADME; conditions: Monkey Cynomolgus plasma
Description: as §1

[3] = system: hypoxia induced PAP increase in conscious dogs; experiment: Haemodynamics in conscious hypoxia challenged dogs (C-2.2); format: in vivo, dog; design: PAP, absolute values for each animal: unit: mmHg; conditions: for mPAP decrease during Hypoxia, each animal / mPAP decrease during Hypoxia, mean +/− SEM: n = 3
Method: Experiments were carried out in anesthetized Göttingen minipigs, anesthetized rats and conscious, telemetrically instrumented dogs. Acute pulmonary hypertension was induced for example by infusion of a thromboxane A2 analogon, by acute hypoxia treatment or hypoxia treatment over a number of weeks and/or by administration of monocrotaline. Test substances were applied via nebulization using the Nebutec® or Aeroneb® Pro nebulizer system, and/or by means of powder and/or solution applicators for experimental intratracheal administration (Liquid MicroSprayer®, Dry Powder Insufflator™, MicroSprayer®, Penn-Century Inc., Wyndmoor, PA, USA) or after solid nebulization inserted into the inspiration arm of the ventilation. Compounds were employed as solids or solutions depending on the molecular structure and the technical possibility depending on the experiment. The haemodynamic signals were recorded and evaluated by means of pressure transducers/amplifiers (Combitransducer B. Braun, Melsungen, Germany or CardioMEMS Inc., Atlanta, GA, USA) and Ponemah® or CardioMems® as data aquisition software. After long-term experiments (for example monocrotaline rat), it is also possible to carry out a histological evaluation.
We evaluated the lung-selectivity and duration of effects of comparative example 11 under conscious conditions, in another species, and under a more physiological stimulus for PAP increase. Dogs were exposed to hypoxia for 30 minutes to induce a hypoxia-mediated PAP increase and comparative example 11 (100 μg/kg nominal dose) was applied by inhalation 1, 5, 12, 16 and 24 hours before hypoxia.
The hypoxic dog model was also used to compare different drug candidates wrt duration of action under conscious conditions.

[4] = 100 μg/kg nominal dose inhaled, 1-2 h post inhalation
[5] = 100 μg/kg nominal dose inhaled, 5-6 h post inhalation
[6] = 100 μg/kg nominal dose inhaled, 12-13 h post inhalation
[7] = 100 μg/kg nominal dose inhaled, 16-17 h post inhalation
[8] = 100 μg/kg nominal dose inhaled, 24-25 h post inhalation

## O=C(O)CCCCN(CCc1ccccc1OCc1ccc(CCc2ccccc2)cc1)Cc1ccc(C(=O)O)cc1 [comparative example 1, 4-[((4Carboxybutyl)-{2-[(4-phenethylbenzyl)oxy]phenethyl}amino)methyl]benzoic acid]
[1]
  fraction unbound: 0.0112
Rabbit saphenous artery; 0.5 h, 30 min after incubation
  IC50: 17 nM
Rabbit saphenous artery; preincubation period of 2.5 h
  IC50: 3 nM
[2]
  fraction unbound: 0.000799

## O=C(O)c1ccc(CCN(CCc2cc(F)ccc2OCc2ccc(-c3nc4cc(Cl)ccc4o3)cc2)C2CCCc3nc(C(=O)O)ccc32)cc1 (single isomer, unassigned) [comparative example 4, 5-{[2-(4-Carboxyphenyl)ethyl][2-(2-{[4-(5-chloro-1,3-benzoxazol-2-yl)benzyl]oxy}-5-fluorophenyl)-ethyl]amino}-5,6,7,8-tetrahydroquinoline-2-carboxylic acid]
[3]; 100 μg/kg nominal dose inhaled 1 h before hypoxia, time 4 min
  PAP, absolute values for each animal: 9 and 15 and 10
[3]; 100 μg/kg nominal dose inhaled 1 h before hypoxia, time 6 min
  PAP, absolute values for each animal: 9 and 14 and 11
[3]; 100 μg/kg nominal dose inhaled 1 h before hypoxia, time 8 min
  PAP, absolute values for each animal: 10 and 14 and 11
[3]; 100 μg/kg nominal dose inhaled 16 h before hypoxia, time 22 min
  PAP, absolute values for each animal: 23 and 26 and 13
[3]; 100 μg/kg nominal dose inhaled 16 h before hypoxia, time 24 min
  PAP, absolute values for each animal: 23 and 26 and 14
[3]; 100 μg/kg nominal dose inhaled 16 h before hypoxia, time 26 min
  PAP, absolute values for each animal: 21 and 32 and 15
[3]; 100 μg/kg nominal dose inhaled 16 h before hypoxia, time 28 min
  PAP, absolute values for each animal: 22 and 29 and 17
[3]; 100 μg/kg nominal dose inhaled 16 h before hypoxia, time 30 min
  PAP, absolute values for each animal: 26 and 31 and 18
[3]; 100 μg/kg nominal dose inhaled 16 h before hypoxia, time 32 min
  PAP, absolute values for each animal: 24 and 29 and 16
[3]; 100 μg/kg nominal dose inhaled 16 h before hypoxia, time 34 min
  PAP, absolute values for each animal: 23 and 32 and 21
[3]; 100 μg/kg nominal dose inhaled 16 h before hypoxia, time 36 min
  PAP, absolute values for each animal: 20 and 29 and 19
[3]; 100 μg/kg nominal dose inhaled 16 h before hypoxia, time 38 min
  PAP, absolute values for each animal: 25 and 29 and 12
[3]; 100 μg/kg nominal dose inhaled 16 h before hypoxia, time 40 min
  PAP, absolute values for each animal: 25 and 30 and 22
[3]; 100 μg/kg nominal dose inhaled 16 h before hypoxia, time 42 min
  PAP, absolute values for each animal: 12 and 21 and 8
[3]; 100 μg/kg nominal dose inhaled 16 h before hypoxia, time 44 min
  PAP, absolute values for each animal: 9 and 17 and 7
[3]; 100 μg/kg nominal dose inhaled 16 h before hypoxia, time 46 min
  PAP, absolute values for each animal: 9 and 16 and 8
[3]; 100 μg/kg nominal dose inhaled 16 h before hypoxia, time 48 min
  PAP, absolute values for each animal: 6 and 16 and 8
[3]; 100 μg/kg nominal dose inhaled 16 h before hypoxia, time 50 min
  PAP, absolute values for each animal: 6 (2×) and 15
[3]; 100 μg/kg nominal dose inhaled 24 h before hypoxia, time 0 min
  PAP, absolute values for each animal: 10 and 16 and 15
[3]; 100 μg/kg nominal dose inhaled 24 h before hypoxia, time 2 min
  PAP, absolute values for each animal: 12 and 16 and 17
[3]; 100 μg/kg nominal dose inhaled 24 h before hypoxia, time 4 min
  PAP, absolute values for each animal: 10 and 15 and 16
[3]; 100 μg/kg nominal dose inhaled 24 h before hypoxia, time 6 min
  PAP, absolute values for each animal: 10 and 13 and 14
[3]; 100 μg/kg nominal dose inhaled 24 h before hypoxia, time 8 min
  PAP, absolute values for each animal: 9 and 14 and 12
[3]; 100 μg/kg nominal dose inhaled 24 h before hypoxia, time 10 min
  PAP, absolute values for each animal: 10 and 15 and 14
[3]; 100 μg/kg nominal dose inhaled 24 h before hypoxia, time 12 min
  PAP, absolute values for each animal: 18 and 22 and 14
[3]; 100 μg/kg nominal dose inhaled 24 h before hypoxia, time 14 min
  PAP, absolute values for each animal: 18 and 19 and 15
[3]; 100 μg/kg nominal dose inhaled 24 h before hypoxia, time 16 min
  PAP, absolute values for each animal: 20 and 23 and 17
[3]; 100 μg/kg nominal dose inhaled 24 h before hypoxia, time 18 min
  PAP, absolute values for each animal: 23 and 25 and 17
[3]; 100 μg/kg nominal dose inhaled 24 h before hypoxia, time 20 min
  PAP, absolute values for each animal: 23 and 24 and 21
[3]; 100 μg/kg nominal dose inhaled 24 h before hypoxia, time 22 min
  PAP, absolute values for each animal: 22 and 26 and 17
[3]; 100 μg/kg nominal dose inhaled 24 h before hypoxia, time 24 min
  PAP, absolute values for each animal: 24 and 25 and 18
[3]; 100 μg/kg nominal dose inhaled 24 h before hypoxia, time 26 min
  PAP, absolute values for each animal: 23 and 25 and 19
[3]; 100 μg/kg nominal dose inhaled 24 h before hypoxia, time 28 min
  PAP, absolute values for each animal: 22 and 27 and 18
[3]; 100 μg/kg nominal dose inhaled 24 h before hypoxia, time 30 min
  PAP, absolute values for each animal: 23
[3]; 100 μg/kg nominal dose inhaled, up to 6 hrs after inhalation
  efficacy (PAP decrease), head to head: comparable efficacy
[3]; [4]
  mPAP decrease during Hypoxia, each animal: −11.69 mmHg and −10.19 mmHg and −11.38 mmHg
  mPAP decrease during Hypoxia, mean +/− SEM: −11.08 ± 0.46 mmHg
[3]; [5]
  mPAP decrease during Hypoxia, each animal: −14.81 mmHg and −6.69 mmHg and −8.00 mmHg
  mPAP decrease during Hypoxia, mean +/− SEM: −9.83 ± 2.52 mmHg
[3]; [6]
  mPAP decrease during Hypoxia, each animal: −0.50 mmHg and −4.63 mmHg and −0.56 mmHg
  mPAP decrease during Hypoxia, mean +/− SEM: −1.90 ± 1.36 mmHg
[3]; [7]
  mPAP decrease during Hypoxia, each animal: 0.81 mmHg and −0.56 mmHg and −1.06 mmHg
  mPAP decrease during Hypoxia, mean +/− SEM: −0.27 ± 0.56 mmHg
[3]; [8]
  mPAP decrease during Hypoxia, each animal: −2.56 mmHg and −3.13 mmHg and −2.25 mmHg
  mPAP decrease during Hypoxia, mean +/− SEM: −2.65 ± 0.26 mmHg
